Source: ChEMBL document CHEMBL1201862, “PubChem BioAssay data set” (2004)
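Five concentrations, 48 hours, 96-well plates. Here, GI50 denotes the concentration required for 50% inhibition of growth.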 Activity calls are given as the source filed them. Rule as the data show it: active = GI50 up to about 1.1 µM and inactive = higher.

Experiments:
Assay in all cases: inhibition of tumour cell growth, NCI panel, 48 h
CAKI-1 = system: CAKI-1
COLO 205 = system: COLO 205
DLD-1 = system: DLD-1
HT-29 = system: HT-29
IGROV-1 = system: IGROV-1
K562 = system: K562
KM12 = system: KM12
LOX IMVI = system: LOX IMVI
NCI-H522 = system: NCI-H522
OVCAR-5 = system: OVCAR-5
SF-295 = system: SF-295
SK-MEL-28 = system: SK-MEL-28
SK-MEL-2 = system: SK-MEL-2
SN12C = system: SN12C
SR = system: SR
TK-10 = system: TK-10
UACC-257 = system: UACC-257
CCRF-CEM = system: CCRF-CEM

Measured: GI50

COc1cc(/C=C2/C(=O)N(C(=O)OCc3ccccc3)C(Cc3cc(OC)c(OC)c(C)c3OC)C(=O)N2Cc2ccccc2)c(OC)c(C)c1OC (stereo unspecified)
inactive: CAKI-1 > 100 µM | COLO 205 > 100 µM | DLD-1 > 100 µM | HT-29 > 100 µM | IGROV-1 > 100 µM | K562 39 µM | KM12 > 100 µM | LOX IMVI > 100 µM | NCI-H522 11 µM | OVCAR-5 > 100 µM | SF-295 > 100 µM | SK-MEL-28 > 100 µM | SK-MEL-2 87.3 µM | SN12C > 100 µM | SR 41.1 µM | TK-10 > 100 µM | UACC-257 9.48 µM

COc1cc2c(c(OC)c1OC)-c1[nH]ncc1CC2
inactive: CAKI-1 60.7 µM | CCRF-CEM > 100 µM | COLO 205 > 100 µM | DLD-1 > 100 µM | HT-29 > 100 µM | IGROV-1 > 100 µM | K562 > 100 µM | KM12 > 100 µM | LOX IMVI > 100 µM | OVCAR-5 > 100 µM | SF-295 > 100 µM | SK-MEL-28 > 100 µM | SK-MEL-2 > 100 µM | SN12C > 100 µM | SR > 100 µM | TK-10 > 100 µM | UACC-257 > 100 µM

C=C(CCCO)[C@@H]1CC[C@@](C)(O)[C@H]1C
inactive: CAKI-1 > 100 µM | COLO 205 > 100 µM | DLD-1 > 10 µM | HT-29 > 100 µM | IGROV-1 > 100 µM | K562 > 100 µM | KM12 > 100 µM | NCI-H522 > 100 µM | OVCAR-5 > 100 µM | SF-295 > 100 µM | SK-MEL-28 > 100 µM | SK-MEL-2 > 100 µM | SN12C > 100 µM | SR > 100 µM | TK-10 > 100 µM | UACC-257 > 100 µM

O=C(Cc1nc2ccccc2o1)C(=O)Nc1ccc(Cl)cc1Cl
inactive: CAKI-1 > 100 µM | COLO 205 > 100 µM | DLD-1 > 100 µM | HT-29 > 100 µM | IGROV-1 > 100 µM | K562 > 100 µM | OVCAR-5 > 100 µM | SF-295 > 100 µM | SK-MEL-28 > 100 µM | SK-MEL-2 > 100 µM | SN12C > 100 µM | SR 13.1 µM | UACC-257 > 100 µM

O=C(c1ccccc1)[C@@H]1C[C@H](Sc2ccccc2)c2cc(Cl)ccc2N1
inactive: CAKI-1 42.2 µM | COLO 205 45.5 µM | DLD-1 23.4 µM | HT-29 22.2 µM | IGROV-1 32.3 µM | K562 18.9 µM | KM12 57.5 µM | LOX IMVI 23.5 µM | NCI-H522 22.1 µM | OVCAR-5 37.6 µM | SF-295 28.1 µM | SK-MEL-28 17.9 µM | SK-MEL-2 31.8 µM | SN12C 15.7 µM | SR 14 µM | TK-10 25.2 µM | UACC-257 17.1 µM

CCOC(=O)Nc1ccc(S(=O)(=O)I)cc1.CCOC(=O)Nc1ccc(S(=O)(=O)I)cc1.CNC(=O)N=O.NC(=O)OCCCl
inactive: CAKI-1 > 100 µM | CCRF-CEM 74.8 µM | COLO 205 > 100 µM | DLD-1 > 100 µM | HT-29 69 µM | IGROV-1 > 100 µM | K562 40 µM | KM12 > 100 µM | LOX IMVI > 100 µM | SF-295 78 µM | SK-MEL-28 67 µM | SK-MEL-2 43.6 µM | SN12C > 100 µM | SR > 100 µM | TK-10 > 100 µM | UACC-257 74.6 µM
